Experimental data published in the OPERA property sets (Mansouri et al. 2018).

Row | Compound | logP
1 | O=C(Cc1ccccc1)Nc1ccccc1F | 2.62
2 | Nc1ccccc1NC(=O)Cc1ccccc1 | 1.45
3 | CC(=O)Oc1cccc(NC(=O)Cc2ccccc2)c1 | 2.37
4 | CC(=O)c1cccc(NC(=O)Cc2ccccc2)c1 | 2.62
5 | CC(=O)N(c1ccccc1)c1ccc(C)cc1 | 3.05
6 | O=C(Cc1ccccc1)Nc1cccc([N+](=O)[O-])c1 | 2.93
7 | O=C(Cc1ccccc1)Nc1ccccc1[N+](=O)[O-] | 2.73
8 | CCNc1cccc(NC(=O)Cc2ccccc2)c1 | 2.59
9 | N#Cc1cccc(NC(=O)Cc2ccccc2)c1 | 2.75
10 | Nc1cccc(NC(=O)Cc2ccccc2)c1 | 1.59
11 | CNc1cccc(NC(=O)Cc2ccccc2)c1 | 2.31
12 | CCc1cccc(N(C(C)=O)c2ccccc2)c1 | 3.47
13 | O=C(Cc1ccccc1)Nc1cccc(O)c1 | 2.22
14 | O=C(Cc1ccccc1)Nc1cccc(F)c1 | 3.1
15 | O=C(Cc1ccccc1)Nc1ccccc1O | 2.4
16 | O=C(Cc1ccccc1)Nc1cccc(Br)c1 | 3.77
17 | CS(=O)(=O)Oc1cccc(NC(=O)Cc2ccccc2)c1 | 2.32

More lines, now with the values ahead:

Row | logP | Compound
18 | 3.14 | Cc1cccc(NC(=O)Cc2ccccc2)c1
19 | 3.23 | CCOc1cccc(NC(=O)Cc2ccccc2)c1
20 | 1.82 | O=C(Cc1ccccc1)Nc1ccc(O)cc1
21 | 3.54 | O=C(Cc1ccccc1)Nc1ccc(Cl)cc1
22 | 2.68 | COc1ccccc1NC(=O)Cc1ccccc1
23 | 3.7 | O=C(Cc1ccccc1)Nc1ccc(Br)cc1
24 | 2.7 | O=C(Cc1ccccc1)Nc1ccccc1
25 | 2.86 | COc1cccc(NC(=O)Cc2ccccc2)c1
26 | 3.18 | O=C(Cc1ccccc1)Nc1ccc([N+](=O)[O-])cc1
27 | 2.86 | O=C(Cc1ccccc1)Nc1ccc(F)cc1
28 | 2.49 | COc1ccc(NC(=O)Cc2ccccc2)cc1
29 | 3.91 | O=C(Cc1ccccc1)Nc1cccc(I)c1
30 | 2.75 | CC(=O)c1ccc(NC(=O)Cc2ccccc2)cc1
